Experimental data taken from patent publication US9975868B2, “7,8-dihydoxyflavone and 7,8-substituted flavone derivatives, compositions, and methods related thereto” (EMORY UNIVERSITY, priority 2012, dated 2018).
“Also recorded” adds a separate entry of the source. One block for each molecule: values may come before it.

Key:
[1] = in vivo PK study, plasma 7,8-DHF after oral administration; parameters: species or system mice
Protocol: Two months old mice were orally administrated 78 mg/kg of the R7, and mice were sacrificed at different time points (n=3), the plasma was then harvested and analyzed by HPLC/MS.
Derivatives with various moieties on the catechol group in 7,8-DHF were synthesized. These derivatives were monitored for intestine microsomal stability, liver microsomal stability and plasma stability.

[2] = brain 7,8-DHF concentration after oral administration; type: in vivo, mice
[3] = tested on: mouse model of Alzheimer's disease; conditions: cited from earlier work
[4] = chemical stability in pH 1.2 and 7.4 buffer; type: physicochemical
Protocol: Metabolism studies indicate that the catechol group is conjugated by glucuronidation, sulfation and methylation in liver, which leads to the poor oral bioavailability upon oral administration. […] Most of 7,8-DHF is conjugated and metabolized within 30 min. Derivatives with various moieties on the catechol group in 7,8-DHF were synthesized. These derivatives were monitored for intestine microsomal stability, liver microsomal stability and plasma stability. In addition, compounds with favorable chemical stability and Caco-2 permeability were examined.
R7 and R13 were chosen to analyze their in vivo PK profiles. The concentration of 7,8-DHF's in brain was examined at different time points after oral administrated 72.5 mg/kg, which is the molecular equivalent of 50 mg/kg of 7,8-DHF. In plasma, 7,8-DHF peaked at around 100 min for R13, whereas administration of the parent compound 7,8-DHF, occurred at 10 min. The oral bioavailability of R13 was around 10%.

TrkB = target: T1, TrkB (Mus musculus, UniProt P15209); experiment: TrkB signaling in mouse brain by immunoblotting after oral administration; type: in vivo; conditions: R7 78 mg/kg oral
T1 construct: from tissue; host or cells: mouse brain (lysates after oral dosing)
T1 sequence (P15209 32-821): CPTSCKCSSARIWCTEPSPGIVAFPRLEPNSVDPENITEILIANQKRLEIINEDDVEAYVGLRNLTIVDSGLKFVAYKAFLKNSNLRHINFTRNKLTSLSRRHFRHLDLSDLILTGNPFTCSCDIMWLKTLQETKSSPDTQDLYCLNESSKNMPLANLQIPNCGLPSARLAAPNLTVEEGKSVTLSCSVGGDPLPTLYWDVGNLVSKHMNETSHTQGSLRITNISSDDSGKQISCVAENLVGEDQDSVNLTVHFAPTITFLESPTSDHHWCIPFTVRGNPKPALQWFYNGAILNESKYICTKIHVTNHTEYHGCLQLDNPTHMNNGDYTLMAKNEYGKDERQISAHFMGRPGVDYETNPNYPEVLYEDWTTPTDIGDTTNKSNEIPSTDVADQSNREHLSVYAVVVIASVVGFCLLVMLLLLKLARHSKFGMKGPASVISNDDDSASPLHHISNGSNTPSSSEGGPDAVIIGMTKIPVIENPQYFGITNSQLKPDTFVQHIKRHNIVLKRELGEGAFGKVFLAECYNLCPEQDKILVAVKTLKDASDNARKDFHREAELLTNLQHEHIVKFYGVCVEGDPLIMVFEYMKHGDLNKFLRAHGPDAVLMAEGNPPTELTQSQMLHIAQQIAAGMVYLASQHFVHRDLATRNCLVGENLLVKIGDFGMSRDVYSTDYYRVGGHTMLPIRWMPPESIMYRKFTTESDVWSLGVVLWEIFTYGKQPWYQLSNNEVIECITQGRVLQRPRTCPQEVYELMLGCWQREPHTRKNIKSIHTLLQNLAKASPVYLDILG
Protocol: R7 (78 mg/kg equal to about 50 mg/kg of 7,8-DHF) was administered orally. The mice were sacrificed at different intervals. The brain lysates were analyzed by immunobotting with various antibodies including p-TrkB 816, Total TrkB, p-Akt and total Akt.
The TrkB signaling in mouse brains was monitored from the in vivo PK study. […] The pharmacodynamic (PD) study fits well with the in vivo PK data, underscoring that the released 7,8-DHF from R7 triggers the long-lasting TrkB signalings in mouse brain.

time within which most is conjugated and metabolized ([1]; C57BL6, mouse, in vivo): ≤ 30 min | bioavailability ([1]; C57BL6, mouse, in vivo, po): ~5% | 7,8-DHF detectability in brain ([2]; oral administration of parent compound): not detectable after 4 h
Compound: O=c1cc(-c2ccccc2)oc2c(O)c(O)ccc12 [7,8-DHF, 7,8-dihydroxyflavone, reference compound]
memory deficits and BACE1 elevation [3]: reverses

Compound: CN(C)C(=O)Oc1ccc2c(=O)cc(-c3ccccc3)oc2c1OC(=O)N(C)C [R7, 4-oxo-2-phenyl-4H-chromene-7,8-diyl bis(dimethylcarbamate)]
7,8-DHF plasma concentrations compared with parent compound ([1]; R7 78 mg/kg vs 7,8-DHF 50 mg/kg P.O.): higher than parent compound | 7,8-DHF detectable in plasma ([1]; at 8 h after oral R7): detectable | chemical stability in buffer ([4]; pH 1.2): stable | chemical stability in buffer ([4]; pH 7.4): stable | TrkB activation (p-TrkB) in mouse brain (TrkB): potently activated; also recorded: triggers TrkB activation | downstream p-Akt signaling activation in mouse brain (TrkB): potently activated; also recorded: downstream Akt signaling activation

Compound: CNC(=O)Oc1ccc2c(=O)cc(-c3ccccc3)oc2c1OC(=O)NC [R13, 4-oxo-2-phenyl-4H-chromene-7,8-diyl bis(methylcarbamate)]
7,8-DHF oral bioavailability and brain concentrations versus parent compound ([2]; FIG. 4, oral administration): improves | 7,8-DHF brain availability ([2]; oral 72.5 mg/kg): significantly elongated
